Consider 11 molecules from US10118947B2, “Modulation of structured polypeptide specificity” (BICYCLE THERAPEUTICS LIMITED, priority 2013, dated 2018).

The term Ki denotes the equilibrium dissociation constant of an inhibitor or competing ligand from its target.

Like-named read-outs stand apart in the source and are kept apart here. Numbered stars: 1 amine (or outer) side, 2 acyl side, 3 side chain; on linkers, the order of the positions; unused ones are H or OH. Bridge positions count the residues as written; N and C are the ends. Square brackets hold non-standard residues; d marks the D form. Peptide text beside a SMILES is read from it. Phe(4-guanidino) = N=C(N)Nc1ccc(C[C@H](N)C(=O)O)cc1; TBMB = c1c(C[*:1])cc(C[*:3])cc1C[*:2]; NMeR = CN[C@@H](CCCNC(=N)N)C(=O)O; hArg = N=C(N)NCCCC[C@H](N)C(=O)O; Aze = O=C(O)[C@@H]1CCN1

For data set [1] the following is noted: Table 1; Method #1; cited from earlier work.
A short description of data set [2]: Plasma stability profiling Method #1 (MALDI-TOF, 35% plasma), rat plasma. The data set is classed as in vitro ADME. To be noted: comparative stabilities estimated according to method #1. An outline of the steps: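 Qualitative test: 200 µM peptide incubated at 37 °C in 35% rat or human citrated plasma supplemented with PBS, sampled at 0, 3, 24 h then daily up to 10 days. Parent mass tracked by MALDI-TOF; value is time until parent peptide no longer detectable.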

Another data set addresses T1, rat plasma Kallikrein (Rattus norvegicus, UniProt P14272).
T1 construct: polyhistidine tag (N, cleaved yes); proTEV cleavage site (pro-peptide linker) (N, cleaved yes); made in house; host or cells: HEK-293 (suspension-adapted)
To be noted: Table 1; read-out: Ki (nM) (rat kallikrein); cited from earlier work.

Data set [3] is described as follows: Quantitative plasma stability Method #3 (LC-MS, 95% plasma), rat plasma. The data set is classed as in vitro ADME. The method, then:
(§1) To obtain plasma stability quantitatively, peptide stock solutions (1 mM in DMSO) were shipped to Biofocus, UK, who performed the analysis. Peptides were diluted to 100 uM with water, and diluted 1:20 in plasma (5 uM final concentration, with the plasma at 95%), sampled as appropriate, precipitated as above, and quantified using a Waters Xevo TQ-MS.

Data set [4] in a line: Quantitative plasma stability Method #3 (LC-MS, 95% plasma), human plasma. The data set is classed as in vitro ADME. The following applies: human plasma (95%), Table 2, ex vivo human plasma, read-out: Human Plasma Stability (t½ in hrs) (converted). As to the method:
as §1

For data set [5] the following is noted: Table 1; Method #3; cited from earlier work.
Data set [6] deals with T2, human plasma Kallikrein (Homo sapiens, UniProt P03952).
T2 construct: purchased Stratech, UK
Description: Functional enzyme inhibition assay with fluorogenic substrate Z-PheArg-AMC, human plasma Kallikrein. The data set is classed as biochemical. The following applies: Table 2; read-out: Ki (nM) human Kai. In outline: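 Human plasma kallikrein at 26.5 pM was preincubated 15 minutes with test peptide in Tris/NaCl/MgCl2/CaCl2/BSA buffer pH7.4 at 25° C, then Z-PheArg-AMC added to 100 μM final in 4% DMSO.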

Data set [7] has as its target T2, human plasma Kallikrein. The experiment in a line: Phage binding assay of individual clones, homogeneous plate-based binding to biotinylated human plasma Kallikrein. The following applies: for BINDING ASSAY SIGNAL: Table 19, fixed WPAR motif library, selection output clones. As to the method:
Library transformant colonies were picked at random and grown as individual cultures in 2TY broth containing selective antibiotic. The picked colonies were DNA-sequenced using a QIAgen PyroMark Q96 DNA sequencer to reveal the amino-acid substitution present in each clone. Where isolated, a clone of each unique substitution was assayed for human plasma Kallikrein binding as follows. The phage-containing supernatant was harvested from the culture and phage were cyclised with tris bromomethyl benzene(TBMB) based on the methods of Heinis et al (Nature Chemical Biology vol. 5 pp 502-507 (2009)). The purified phage from this process were assayed for binding to biotinylated human plasma Kallikrein using a homogeneous plate-based binding assay; assay read-out measured on a BMG Labtech Pherastar FS plate reader. The quantitative binding data from triplicate assay samples was averaged (mean) and expressed as signal:background (where background was a sample assayed with no target material). The signal:background was expressed as a % of the parallel parent sample. Error bars denote standard deviation of the mean. Assays shown are representative of at least 2 independent experiments. The assay data was correlated with the peptide sequences. Substitutions marked in grey were not tested (a clone was not isolated from the random library sampling). A sample of a non-binding (arbitrary) bicycle was assayed in parallel to illustrate the assay baseline.
Library transformant colonies, or selection output colonies, were picked and grown as individual cultures in 2TY broth containing selective antibiotic. The picked colonies were DNA-sequenced using a QIAgen PyroMark Q96 DNA sequencer to reveal the amino-acid substitution present in each clone, and were assayed for human plasma Kallikrein binding as follows. The phage-containing supernatant was harvested from the culture and phage were cyclised with tris bromomethyl benzene (TBMB) based on the methods of Heinis et al (Nature Chemical Biology vol. 5 pp 502-507 (2009)). The purified phage from this process were assayed for binding to biotinylated human plasma Kallikrein using a homogeneous plate-based binding assay; assay read-out measured on a BMG Labtech Pherastar FS plate reader. The quantitative binding data from duplicate assay samples was averaged (mean) and expressed as signal:background. Assay data shown is representative of at least 2 independent experiments. The assay data was correlated with the peptide sequences.

Data set [8] deals with T2, human plasma Kallikrein. Description: Phage selections against human plasma Kallikrein (abundance in selection output). To be noted: Table 17; relative abundance in the total selection outputs. The data set is classed as binding. As to the method: Glycerol stocks of phage libraries were diluted to OD600=0.1 in 500 ml 2YT/chloramphenicol (30 μg/ml) cultures and phage were produced at 30° C. over night (15-16 hrs). Phage were purified and chemically modified as described in Heinis, et al., Nat Chem Biol 2009, 5 (7), 502-7 Biotinylated hPK (3 μg) (IHPKA, from human plasma, Innovative Research, Novi, Mich., USA) was incubated with 50 μl pre-washed magnetic streptavidin beads (Dynal, M-280 from Invitrogen, Paisley, UK) for 10 minutes at RT. Beads were washed 3 times prior to blocking with 0.5 ml washing buffer (10 mM Tris-Cl, pH 7.4, 150 mM NaCl, 10 mM MgCl2, 1 mM CaCl2) containing 1% BSA and 0.1% Tween 20 for 30 minutes at RT with rotation. […] Blocked beads were then mixed with the blocked chemically modified phage and incubated for 30 minutes on a rotating wheel at
RT. Beads were washed 8 times with washing buffer containing 0.1% Tween 20 and twice with washing buffer before incubation with 100 μl of 50 mM glycine, pH 2.2 for 5 minutes. Eluted phage were transferred to 50 μl of 1 M Tris-Cl, pH 8 for neutralization, incubated with 30 ml TG1 cells at OD600=0.4 for 90 minutes at 37° C. and the cells were plated on large 2YT/chloramphenicol plates. One or two additional rounds of panning were performed using the same procedures. In the second round of selection, neutravidin-coated magnetic beads were used to prevent the enrichment of streptavidin-specific peptides. The neutravidin beads were prepared by reacting 0.8 mg neutravidin (Pierce, Rockford, Ill., USA) with 0.5 ml tosyl-activated magnetic beads (Dynal, M-280 from Invitrogen, Paisley, UK) according to the supplier's instructions.
The WPAR (SEQ ID No. 19) motif identified from Example 1 was analysed in the context of the 06-34-03 peptide, in order to identify alternatives or improvements to the WPAR motif. A library was constructed where positions 1, 6, 7, 8, 9 &10 of 06-34-03 were fixed and positions 2, 3, 4 & 5 were randomised (see ‘Randomisation of peptide domains—Library construction’ in Methods above). Selections against human plasma Kallikrein were performed at a variety of stringencies (see Phage selections' in Methods above). All output sequences were identified and analysed for target binding (see ‘Randomisation of peptide domains—Assay of binding of individual clones’ in Methods above). Table 17 lists each unique sequence, its relative abundance in the selection output (frequency), and a rank number according to target binding strength.

[9] abbreviates: rat plasma (95%), Table 2, ex vivo rat plasma, Method #3, read-out: Rat Plasma Stability (t½ in hrs) (converted).

T1 sequence (P14272 391-638 limits assumed): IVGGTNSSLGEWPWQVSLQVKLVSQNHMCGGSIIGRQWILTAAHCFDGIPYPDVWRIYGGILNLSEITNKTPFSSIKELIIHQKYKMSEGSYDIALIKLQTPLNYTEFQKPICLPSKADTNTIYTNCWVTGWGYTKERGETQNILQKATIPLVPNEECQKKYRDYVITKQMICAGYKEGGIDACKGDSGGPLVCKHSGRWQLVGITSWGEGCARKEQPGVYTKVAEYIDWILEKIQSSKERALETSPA
T2 sequence (P03952 20-638): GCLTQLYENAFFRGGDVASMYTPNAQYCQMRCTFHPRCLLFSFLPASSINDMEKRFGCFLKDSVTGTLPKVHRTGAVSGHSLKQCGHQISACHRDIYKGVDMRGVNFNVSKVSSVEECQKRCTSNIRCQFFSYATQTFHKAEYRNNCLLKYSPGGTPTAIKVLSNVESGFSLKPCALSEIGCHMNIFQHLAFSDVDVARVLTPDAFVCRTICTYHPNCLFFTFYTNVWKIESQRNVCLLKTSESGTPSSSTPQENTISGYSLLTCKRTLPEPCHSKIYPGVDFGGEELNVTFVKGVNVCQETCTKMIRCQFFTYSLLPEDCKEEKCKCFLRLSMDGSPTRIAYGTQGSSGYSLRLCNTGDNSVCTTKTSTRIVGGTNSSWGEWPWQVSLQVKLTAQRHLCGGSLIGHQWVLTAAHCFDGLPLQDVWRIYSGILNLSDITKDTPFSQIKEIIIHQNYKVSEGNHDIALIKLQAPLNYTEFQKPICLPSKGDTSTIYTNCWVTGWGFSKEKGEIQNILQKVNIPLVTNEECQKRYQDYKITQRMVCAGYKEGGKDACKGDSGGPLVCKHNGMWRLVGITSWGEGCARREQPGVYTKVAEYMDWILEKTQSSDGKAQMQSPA

In the case of `CC(=O)N[C@H]1CSCc2cc3cc(c2)CSC[C@H](NC(=O)[C@H](Cc2ccc(NC(=N)N)cc2)NC(=O)[C@H](C)NC(=O)[C@@H]2CCN2C(=O)[C@H](Cc2c[nH]c4ccccc24)NC(=O)[C@H](CO)NC1=O)C(=O)N[C@@H](CC(C)C)C(=O)N[C@@H](Cc1c[nH]cn1)C(=O)N[C@@H](CCC(N)=O)C(=O)N[C@@H](CC(=O)O)C(=O)N[C@@H](CC(C)C)C(=O)N[C@H](C(N)=O)CSC3` [Ac-(06-34-18) Aze3 4GuanPhe5] (Ac-CSW[Aze]A[Phe(4-guanidino)]CLHQDLC-NH2; linker 1-7-13 via TBMB), the “Observable in rat plasma, for days” value in [1] and in [2] (Table 15) was above 10 days each time.

On to `CC(=O)N[C@H]1CSCc2cc3cc(c2)CSC[C@H](NC(=O)[C@H](CCCCNC(=N)N)NC(=O)[C@H](C)NC(=O)[C@@H]2CCN2C(=O)[C@H](Cc2c[nH]c4ccccc24)NC(=O)[C@H](CO)NC1=O)C(=O)N[C@@H](CC(C)C)C(=O)N[C@@H](Cc1c[nH]cn1)C(=O)N[C@@H](CCC(N)=O)C(=O)N[C@@H](CC(=O)O)C(=O)N[C@@H](CC(C)C)C(=O)N[C@H](C(N)=O)CSC3` [Ac-(06-34-18) Aze3 HomoArg5] (Ac-CSW[Aze]A[hArg]CLHQDLC-NH2; linker 1-7-13 via TBMB), for which the “Observable in rat plasma, for days” value in data set [1] and in data set [2] (Table 15) was above 10 days each time. Also, the inhibition constant Ki at rat plasma Kallikrein is 14.8 nM.

Take `CC(=O)N[C@H]1CSCc2cc3cc(c2)CSC[C@H](NC(=O)[C@H](CCCNC(=N)N)N(C)C(=O)[C@H](C)NC(=O)[C@@H]2CCN2C(=O)[C@H](Cc2c[nH]c4ccccc24)NC(=O)[C@H](CO)NC1=O)C(=O)N[C@@H](CC(C)C)C(=O)N[C@@H](Cc1c[nH]cn1)C(=O)N[C@@H](CCC(N)=O)C(=O)N[C@@H](CC(=O)O)C(=O)N[C@@H](CC(C)C)C(=O)N[C@H](C(N)=O)CSC3` [Ac-(06-34-18) Aze3 NMeArg5] (Ac-CSW[Aze]A[NMeR]CLHQDLC-NH2; linker 1-7-13 via TBMB): the “Observable in rat plasma, for days” value in [1] and in [2] (Table 15) was above 10 days throughout. The Ki on rat plasma Kallikrein was 70.2 nM.

For the molecule `CC(=O)N[C@H]1CSCc2cc3cc(c2)CSC[C@H](NC(=O)[C@H](Cc2ccc(NC(=N)N)cc2)NC(=O)[C@H](Cc2ccc(O)cc2)NC(=O)[C@@H]2CCCN2C(=O)[C@H](Cc2ccccc2)NC(=O)[C@H](CO)NC1=O)C(=O)N[C@@H](CC(C)C)C(=O)N[C@@H](Cc1c[nH]cn1)C(=O)N[C@@H](CCC(N)=O)C(=O)N[C@@H](CC(=O)O)C(=O)N[C@@H](CC(C)C)C(=O)N[C@H](C(N)=O)CSC3` [Ac-(06-34-18) Phe2 Tyr4 4GuanPhe5] (Ac-CSFPY[Phe(4-guanidino)]CLHQDLC-NH2; linker 1-7-13 via TBMB), the half-life at 5 uM in data set [3] (setting [9]) was 5 h; in data set [4], 2.9 h. The “Observable in rat plasma, for days” value in data set [1] and in data set [2] (Table 23) was above 10 days each time. For the same molecule, the Ki on rat plasma Kallikrein is 0.6 nM. Moreover, in data set [5], the “t1/2 (hrs) in rat plasma” value is 5.0 h.

On to `CC(=O)N[C@H]1CSCc2cc3cc(c2)CSC[C@H](NC(=O)[C@H](CCCCNC(=N)N)NC(=O)[C@H](Cc2ccc(O)cc2)NC(=O)[C@@H]2CCCN2C(=O)[C@H](Cc2ccccc2)NC(=O)[C@H](CO)NC1=O)C(=O)N[C@@H](CC(C)C)C(=O)N[C@@H](Cc1c[nH]cn1)C(=O)N[C@@H](CCC(N)=O)C(=O)N[C@@H](CC(=O)O)C(=O)N[C@@H](CC(C)C)C(=O)N[C@H](C(N)=O)CSC3` [Ac-(06-34-18) Phe2 Tyr4 HomoArg5] (Ac-CSFPY[hArg]CLHQDLC-NH2; linker 1-7-13 via TBMB), for which the “t1/2 (hrs) in rat plasma” value in [3] (Table 23, method #3) was 12.2 h; in data set [5], 12.2 h. For the same molecule, the “rat plasma stability enhanced by a factor” value in data set [3] (compared to parent Phe2 Tyr4 peptide) turned out to be 13. Moreover, the half-life at 5 uM in data set [3] (setting [9]) is 12.2 h; in data set [4], 2.1 h. Moreover, the “Observable in rat plasma, for days” value in data set [1] and in [2] (Table 23) was above 10 days in each case. The Ki on rat plasma Kallikrein was 16.2 nM.

Turning to `CC(=O)N[C@H]1CSCc2cc3cc(c2)CSC[C@H](NC(=O)[C@H](CCCNC(=N)N)N(C)C(=O)[C@H](Cc2ccc(O)cc2)NC(=O)[C@@H]2CCCN2C(=O)[C@H](Cc2ccccc2)NC(=O)[C@H](CO)NC1=O)C(=O)N[C@@H](CC(C)C)C(=O)N[C@@H](Cc1c[nH]cn1)C(=O)N[C@@H](CCC(N)=O)C(=O)N[C@@H](CC(=O)O)C(=O)N[C@@H](CC(C)C)C(=O)N[C@H](C(N)=O)CSC3` [Ac-(06-34-18) Phe2 Tyr4 NMeArg5] (Ac-CSFPY[NMeR]CLHQDLC-NH2; linker 1-7-13 via TBMB), the half-life at 5 uM was above 20 h in data set [3] (setting [9]); above 20 h in [3] (rat, plasma, Table 23, method #3, read-out: t1/2 (hrs) in rat plasma (converted)); 1.7 h in data set [4]. For the same molecule, the “Observable in rat plasma, for days” value in [1] and in data set [2] (Table 23) was above 10 days in each case. The values for the Ki at human plasma Kallikrein [6] and on rat plasma Kallikrein were 4 nM and 64.3 nM, respectively. Also, the “t1/2 (hrs) in rat plasma” value in [5] is above 20 h.

For the molecule CAWPARCTHDDLC, the “BINDING ASSAY SIGNAL” value with human plasma Kallikrein [7] worked out at 84.

For CLWPARCLTIELC, in the data set with human plasma Kallikrein [7], the “BINDING ASSAY SIGNAL” value is reported as 59.

As to CQWPARCTHTDLC, the “BINDING ASSAY SIGNAL” value with human plasma Kallikrein [7] came out at 91.

As to CSWPARCTHTDLC, in the data set with human plasma Kallikrein [7], the “BINDING ASSAY SIGNAL” value was 83.

CSWPYHCTHQDLC gave an FREQUENCY in the data set with human plasma Kallikrein [8] of 1. The molecule further displayed an RANK with human plasma Kallikrein [7] (Table 17, rank according to Kallikrein binding, positions 2-5 of 06-34-03 randomised) of 39.
